# Reference: patent US10695337B2, “Piperidin-4-yl azetidine derivatives as JAK1 inhibitors” (Incyte Corporation, priority 2010, dated 2020)
# Biological target: human JAK1 (a.a. 837-1142)
# Assay: In vitro JAK kinase assay (HTRF, phosphorylation of a biotinylated peptide), JAK1
# Assay type: biochemical
# Conditions: measured at 1 mM ATP; JAK2 IC50 / JAK1 IC50
# In short: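 N-terminal His-tagged catalytic domains, baculovirus-expressed in insect cells, phosphorylated a biotinylated peptide for 1 hr at room temperature. EDTA stop was followed by SA-APC and Eu-Py20 antibody for 40 minutes, with phosphopeptide read by HTRF.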
row,IC50 Ratio JAK2/JAK1,Structure (SMILES)
1,5.2,"N#CCC1(n2cc(-c3ncnc4[nH]ccc34)cn2)CN(C2CCN(S(=O)(=O)c3cccc(C#N)c3)CC2)C1 [Example 248, 3-[(4-{3-(cyanomethyl)-3-[4-(7H-pyrrolo[2,3-d]pyrimidin-4-yl)-1H-pyrazol-1-yl]azetidin-1-yl}piperidin-1-yl)sulfonyl]benzonitrile]"
2,2.1,"N#CCC1(n2cc(-c3ncnc4[nH]ccc34)cn2)CN(C2CCN(S(=O)(=O)c3ccc(C#N)cc3)CC2)C1 [Example 249, 4-[(4-{3-(cyanomethyl)-3-[4-(7H-pyrrolo[2,3-d]pyrimidin-4-yl)-1H-pyrazol-1-yl]azetidin-1-yl}piperidin-1-yl)sulfonyl]benzonitrile]"
3,4.7,"CN(C)c1ccc(S(=O)(=O)N2CCC(N3CC(CC#N)(n4cc(-c5ncnc6[nH]ccc56)cn4)C3)CC2)cc1C#N [Example 250, 5-[(4-{3-(cyanomethyl)-3-[4-(7H-pyrrolo[2,3-d]pyrimidin-4-yl)-1H-pyrazol-1-yl]azetidin-1-yl}piperidin-1-yl)sulfonyl]-2-(dimethylamino)benzonitrile]"
4,4.9,"Cn1ccc(S(=O)(=O)N2CCC(N3CC(CC#N)(n4cc(-c5ncnc6[nH]ccc56)cn4)C3)CC2)n1 [Example 251, {1-{1-[(1-methyl-1H-pyrazol-3-yl)sulfonyl]piperidin-4-yl}-3-[4-(7H-pyrrolo[2,3-d]pyrimidin-4-yl)-1H-pyrazol-1-yl]azetidin-3-yl}acetonitrile]"

# The remaining lines, values behind:
row,Structure (SMILES),IC50 Ratio JAK2/JAK1
1,"N#CCC1(n2cc(-c3ncnc4[nH]ccc34)cn2)CN(C2CCN(Cc3c(Cl)cncc3Cl)CC2)C1 [Example 237, {1-{1-[(3,5-dichloropyridin-4-yl)methyl]piperidin-4-yl}-3-[4-(7H-pyrrolo[2,3-d]pyrimidin-4-yl)-1H-pyrazol-1-yl]azetidin-3-yl}acetonitrile]",2.3
2,"COc1ccc2nc(Cl)c(CN3CCC(N4CC(CC#N)(n5cc(-c6ncnc7[nH]ccc67)cn5)C4)CC3)cc2c1 [Example 238, {1-{1-[(2-chloro-6-methoxyquinolin-3-yl)methyl]piperidin-4-yl}-3-[4-(7H-pyrrolo[2,3-d]pyrimidin-4-yl)-1H-pyrazol-1-yl]azetidin-3-yl}acetonitrile]",6.8
3,"COc1ccc(CN2CCC(N3CC(CC#N)(n4cc(-c5ncnc6[nH]ccc56)cn4)C3)CC2)c(Cl)c1OC [Example 239, {1-[1-(2-chloro-3,4-dimethoxybenzyl)piperidin-4-yl]-3-[4-(7H-pyrrolo[2,3-d]pyrimidin-4-yl)-1H-pyrazol-1-yl]azetidin-3-yl}acetonitrile]",2.3
4,"N#CCC1(n2cc(-c3ncnc4[nH]ccc34)cn2)CN(C2CC3CCC(C2)N3Cc2c(F)ccc(F)c2Cl)C1 (centres unmarked) [Example 241, {1-[8-(2-Chloro-3,6-difluorobenzyl)-8-azabicyclo[3.2.1]oct-3-yl]-3-[4-(7H-pyrrolo[2,3-d]pyrimidin-4-yl)-1H-pyrazol-1-yl]azetidin-3-yl}acetonitrile]",3.8
5,"CC1CC(N2CC(CC#N)(n3cc(-c4ncnc5[nH]ccc45)cn3)C2)CCN1Cc1c(F)cccc1Cl (centres unmarked) [Example 245, {1-[1-(2-chloro-6-fluorobenzyl)-2-methylpiperidin-4-yl]-3-[4-(7H-pyrrolo[2,3-d]pyrimidin-4-yl)-1H-pyrazol-1-yl]azetidin-3-yl}acetonitrile]",1.5
6,"Cn1nccc1S(=O)(=O)N1CCC(N2CC(CC#N)(n3cc(-c4ncnc5[nH]ccc45)cn3)C2)CC1 [Example 246, {1-{1-[(1-Methyl-1H-pyrazol-5-yl)sulfonyl]piperidin-4-yl}-3-[4-(7H-pyrrolo[2,3-d]pyrimidin-4-yl)-1H-pyrazol-1-yl]azetidin-3-yl}acetonitrile]",7.5
7,"N#CCC1(n2cc(-c3ncnc4[nH]ccc34)cn2)CN(C2CCN(S(=O)(=O)c3ccccc3C#N)CC2)C1 [Example 247, 2-[(4-{3-(cyanomethyl)-3-[4-(7H-pyrrolo[2,3-d]pyrimidin-4-yl)-1H-pyrazol-1-yl]azetidin-1-yl}piperidin-1-yl)sulfonyl]benzonitrile]",5.1
